Laboratory results reported in article PMC6882900, “Pharmacokinetics of Micafungin in Critically Ill Patients” (Scientific Reports, 2019).
Converted amounts (≈) assume the structure as drawn. Numbered stars: 1 amine (or outer) side, 2 acyl side, 3 side chain; on linkers, the order of the positions; unused ones are H or OH. Bridge positions count the residues as written; N and C are the ends. Square brackets hold non-standard residues; d marks the D form. Peptide text beside a SMILES is read from it. * marks the point of attachment. hTyr(3S-OH,4S-OH,3'-OSO3H) = N[C@H](C(=O)O)[C@H](O)[C@@H](O)c1ccc(O)c(OS(=O)(=O)O)c1; Orn(4R-OH,5R-OH) = O=C([C@H](C[C@@H](O)[C@@H](O)N[*:3])N[*:1])[*:2]; Pro(3S-OH,4S-Me) = C[C@H]1CN[C@H](C(=O)O)[C@H]1O; X1 = CCCCCOc1ccc(-c2cc(-c3ccc(C(=O)*)cc3)no2)cc1; Gln(3R-OH) = NC(=O)C[C@@H](O)[C@H](N)C(=O)O; Hyp = O=C(O)[C@@H]1C[C@@H](O)CN1

How the values were obtained:
[1] = tested on: C. glabrata; set-up: method as in EUCAST; conditions: ref EUCAST; cited from earlier work
[2] = tested on: C. parapsilosis; assay: Pharmacodynamic target evaluation (AUC/MIC) in the study population; format: in vivo, Candida parapsilosis; conditions: fixed dose 100 mg once daily, post-hoc AUC 0-24 h per patient and day
Text: (§1) The European Committee on Antimicrobial Susceptibility Testing (EUCAST) established the guideline for micafungin and Candida ssp. with species related clinical breakpoints for non-resistant strains. These breakpoints were used as surrogate for the minimal inhibitory concentration (MIC) for C. albicans, C. glabrata and C. parapsilosis. Proposed MICs are […], respectively.
(§2) Using the previously established population pharmacokinetic model, the AUC for each patient on each day of therapy was determined.

[3] = tested on: C. albicans; conditions: non-resistant strains; cited from earlier work
Text: as §1

[4] = tested on: C. parapsilosis; conditions: non-resistant strains; cited from earlier work
Text: as §1

[5] = tested on: C. parapsilosis; set-up: method as in EUCAST; conditions: ref EUCAST; cited from earlier work
[6] = tested on: C. glabrata; assay: Pharmacodynamic target evaluation (AUC/MIC) in the study population; format: in vivo, Candida glabrata; conditions: fixed dose 100 mg once daily, post-hoc AUC 0-24 h per patient and day
Text: as §1, §2

[7] = tested on: C. albicans; set-up: method as in EUCAST; conditions: ref EUCAST; cited from earlier work
[8] = cited from earlier work
Procedure: (§3) Micafungin has a small volume of distribution (~119 ml/kg) and the drug is highly protein bound (>99%). The primary binding protein is albumin. […] The pharmacokinetics and pharmacodynamics of micaf ...

[9] = tested on: albumin; conditions: primary binding protein is albumin; cited from earlier work
Procedure: as §3

[10] = Population pharmacokinetic modelling of micafungin in critically ill patients (NONMEM, plasma samples); format: in vivo, human
Text: This is a non-interventional study conducted in critically ill adult patients treated in the intensive care units of the Department of Anaesthesiology, Intensive Care Medicine and Pain Therapy of the University Hospital Muenster in Germany. The collection of data and blood samples was approved by the ethics committee of the University of Muenster (Study Code 06-AnIt-11). […] Written informed consent was obtained from all patients or their representatives.
The study included 36 adult patients. Patient demographics and other clinical parameters were collected from the electronic patient charts of the intensive care unit. All patients received 100 mg micafungin intravenously once daily either as empiric or targeted therapy of suspected or proven infection. The decision to begin or end therapy was made by the physicians in charge of the intensive care units irrespective of the pharmacologic study.
Blood samples were collected from indwelling arterial catheters for analysis of micafungin concentrations. On day 1, plasma micafungin concentration was determined at 1, 4, 8, 12, 16 and 20 hours post application and as a trough level immediately before the next dose of micafungin after 24 hours. From day two of therapy, peak levels one hour after infusion and trough levels were collected.
Blood samples were exclusively taken from arterial lines into ethylenediaminetetraacetic acid (EDTA)-containing sample vials tubes (S-Monovette® 2.7 ml K3E, Sarstedt, Nümbrecht, Germany). Samples were immediately transported to the in-house laboratory and plasma was separated by centrifugation at 1600 x g (10 min) and kept and frozen at −80 °C until analysis.
Micafungin in human plasma was analyzed with reversed-phase high-performance liquid chromatography. 200 µl serum, 20 µl internal standard solution (anidulafungin 1 mg/ml in water), 20 µl 30% ZnSO4 x7H2O (w/v) in water and 700 µl methanol were vortex-mixed (5 sec) followed by centrifugation at 800 g for 3 min. 50 µl of the supernatant was injected on a 125 liquid chromatograph (Beckman Coulter GmbH, Krefeld, Germany) interfaced with a model 168 diode array detector. Chromatographic conditions: mobile phase: acetonitrile/50 mM ammonium acetate buffer pH 4.6, 50:50 (v/v); flow rate 1 ml/min at 45 °C; absorbance detection 271 nm; column: XTerra RP18, 3.5 µm, 150 × 4.6 mm (Waters GmbH, Eschborn, Germany).
Model building was performed using NONMEM (Version 7.3; ICON Development Solutions, Ellicott City, MD) with the ADVAN 6 subroutine and the FOCE + I estimation method. Visual predictive checks (pcVPC) and stepwise covariate model building (SCM) were performed with the PsN module (Version 4.6.0)[25]. Graphical output was created in R (version 3.4.0; R foundation for statistical computing, Vienna, Austria) with additional use of the Xpose package (version 4.5.3)[26].
The basic structural model was tested with the following compositions: One to three compartments with linear clearance, nonlinear (Michaelis Menten) clearance and a combination of both were tested.
As categorical covariate, sex was tested. Covariate influence was tested on central and peripheral volumes of distribution, and clearance. Covariate testing was performed using stepwise covariate modelling (SCM) in PsN with a 5% forward inclusion and 1% backward elimination criterion.

[11] = tested on: C. albicans; assay: Pharmacodynamic target evaluation (AUC/MIC) in the study population; format: in vivo, Candida albicans; conditions: fixed dose 100 mg once daily, post-hoc AUC 0-24 h per patient and day
Text: as §1, §2

[12] = final population PK model estimate, 36 critically ill adult patients, 100 mg i.v. once daily

Structure (SMILES): CCCCCOc1ccc(-c2cc(-c3ccc(C(=O)N[C@H]4C[C@@H](O)[C@@H](O)NC(=O)[C@@H]5[C@@H](O)[C@@H](C)CN5C(=O)[C@H]([C@H](O)CC(N)=O)NC(=O)[C@H]([C@H](O)[C@@H](O)c5ccc(O)c(OS(=O)(=O)O)c5)NC(=O)[C@@H]5C[C@@H](O)CN5C(=O)[C@H]([C@@H](C)O)NC4=O)cc3)no2)cc1 [micafungin] (X1-[Orn(4R-OH,5R-OH)]T[Hyp][hTyr(3S-OH,4S-OH,3'-OSO3H)][Gln(3R-OH)][Pro(3S-OH,4S-Me)]; lactam 1-C)
- AUC/MIC target to reach stasis [1]: 1283
- Adequacy of AUC/MIC ratio against EUCAST breakpoint [2]: does not seem suitable
- MIC (EUCAST breakpoint as surrogate) [3]: 16 µg/mL (≈ 12.6 µM)
- MIC (EUCAST breakpoint as surrogate) [4]: 2000 µg/mL (≈ 1570 µM)
- AUC/MIC target to reach stasis [5]: 285
- Adequacy of AUC/MIC ratio against EUCAST breakpoint [6]: adequate therapy intensities
- AUC/MIC target to reach stasis [7]: 2420
- Volume of distribution [8]: ~ 119 ml/kg
- Linearity of pharmacokinetics ([8]; daily doses between 12.5 mg and 200 mg as well as 3 mg/kg and 8 mg/kg): Linear pharmacokinetics
- Protein bound [9]: > 99%
- Influence of renal replacement therapy on pharmacokinetics ([10]; CVVHDF, SLEDD, clearance and volumes of distribution): did not alter the pharmacokinetics
- Lower central volume of distribution in patients with SOFA >10 ([10]; categorical covariate effect, SOFA >10 vs less critically ill patients): 30.8%
- Lower clearance in patients with bilirubin >4 mg/dl ([10]; categorical covariate effect, bilirubin >4 mg/dl): 21.1%
- Central volume of distribution [10, 12]: 16.2 L
- Inter-compartmental clearance [10, 12]: 14.4 L/h
- Peripheral volume of distribution [10, 12]: 13.8 L
- clearance ([10]; human, iv, final population PK model estimate (two compartments, linear elimination), 36 critically ill adult patients, 100 mg i.v. once daily, plasma, HPLC-UV): 26 mL/min
- Accumulation of micafungin in plasma ([10]; up to 10 days of treatment, 100 mg i.v. once daily): No accumulation
- Adequacy of AUC/MIC ratio against EUCAST breakpoint [11]: adequate therapy intensities
